Drawing on PMC11939276, “Identifying Baicalein as a Key Bioactive Compound in XueBiJing Targeting KEAP1: Implications for Antioxidant Effects” (Antioxidants, 2025), this text covers Kd for 1 compound.

The experiment addresses T1, KEAP1 (Homo sapiens, UniProt Q14145).
T1 construct: recombinant KEAP1 protein (Sino Biological No. 11981-HNCB)
In words: SPR (Biacore X100, immobilized recombinant KEAP1); supported by CETSA-WB in MCF-7 lysate. Format: binding.

T1 sequence (Q14145 whole entry): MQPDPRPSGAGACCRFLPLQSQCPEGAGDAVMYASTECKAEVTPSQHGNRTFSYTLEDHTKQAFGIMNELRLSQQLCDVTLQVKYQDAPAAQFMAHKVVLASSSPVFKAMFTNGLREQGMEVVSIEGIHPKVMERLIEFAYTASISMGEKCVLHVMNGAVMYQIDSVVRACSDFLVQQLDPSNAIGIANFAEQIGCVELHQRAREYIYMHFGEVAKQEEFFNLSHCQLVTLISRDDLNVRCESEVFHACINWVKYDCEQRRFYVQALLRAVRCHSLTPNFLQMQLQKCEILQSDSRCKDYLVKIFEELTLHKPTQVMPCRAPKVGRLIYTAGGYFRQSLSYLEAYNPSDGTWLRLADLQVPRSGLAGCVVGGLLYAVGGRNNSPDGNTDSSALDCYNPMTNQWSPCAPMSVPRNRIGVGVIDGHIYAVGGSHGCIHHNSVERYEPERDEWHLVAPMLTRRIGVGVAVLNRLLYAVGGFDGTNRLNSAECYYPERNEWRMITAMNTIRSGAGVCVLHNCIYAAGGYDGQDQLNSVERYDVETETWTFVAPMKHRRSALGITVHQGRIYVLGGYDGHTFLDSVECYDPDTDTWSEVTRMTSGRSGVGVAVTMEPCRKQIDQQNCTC

As to `O=c1cc(-c2ccccc2)oc2cc(O)c(O)c(O)c12` [Baicalein], the Kd was determined as 158 µM.
